From article PMC7055211 (Scientific Reports, 2020)

Test system: Mahoney strain of poliovirus
Format: cell-based, Poliovirus Type I Mahoney
Settings: 293 T; infectivity; PFU

COc1ccc2[nH]c([S+]([O-])Cc3ncc(C)c(OC)c3C)nc2n1 (stereo not shown) [Tenatoprazole, tenatoprazole]
Virus Production (resistant or susceptible), PV: Resistant
